Experimental data: patent publication US20250223281A1, “ANTIDIABETIC COMPOUNDS AND COMPOSITIONS” (REZUBIO PHARMACEUTICALS CO., LTD, priority 2022, published 2025)

Biological target: T1, GPR40 (Homo sapiens, UniProt O14842)
T1 construct: expressed in transfected cells; host or cells: HEK293 cells stably expressing GPR40 (Hygromycin selection)
Assay: IP1 accumulation assay in HEK293 cells stably expressing GPR40
Assay type: cell-based
In short: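 HEK293 cells stably expressing human GPR40 were incubated with compounds (10-point, 3-fold dilution series) for 2 h at 37 °C, then IP1 was detected by HTRF (665/615 nm ratio). Effect was normalised to DMSO blank and AMG-1638 as 100%, and EC50 was derived from dose curves.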

[1] = IP1 accumulation, HEK293 cells stably expressing GPR40, 2 hours at 37° C., % effect relative to AMG-1638, table of Biological Example 1
[2] = Tables A-1a to A-7b (structure-property relationship), obtained by methods of Biological Example 1

T1 sequence (O14842 whole entry): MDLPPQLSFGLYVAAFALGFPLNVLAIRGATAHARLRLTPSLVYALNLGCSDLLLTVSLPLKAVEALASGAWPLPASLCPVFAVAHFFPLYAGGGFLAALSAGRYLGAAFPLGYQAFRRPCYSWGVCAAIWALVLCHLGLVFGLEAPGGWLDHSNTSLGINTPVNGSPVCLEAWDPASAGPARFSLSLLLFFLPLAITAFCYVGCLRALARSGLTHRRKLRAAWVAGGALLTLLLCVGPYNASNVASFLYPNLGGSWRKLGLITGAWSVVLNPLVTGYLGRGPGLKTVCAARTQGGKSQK

Compound	EC50 [1] [nM]	EC50 [2] [nM]
COc1ccc(F)c(-c2ccc(COc3cccc([C@@H](CC(=O)O)C4CC4)c3)cc2CC(C)(C)Cc2cn(CCCCCCCCCCCCCCCC(=O)NCC[N+](C)(CCC(=O)NCCN)CCC(=O)NCCN)nn2)c1 [Example 90]	2.6	2.6
COc1ccc(F)c(-c2ccc(COc3cccc([C@@H](CC(=O)O)C4CC4)c3)cc2CC(C)(C)Cc2cn(CCCCCCCCCCCCCCCCCC(=O)NCC[N+](C)(C)CCCS(=O)(=O)O)nn2)c1 [Example 91]	1.52	–
COc1ccc(F)c(-c2ccc(COc3cccc([C@@H](CC(=O)O)C4CC4)c3)cc2CC(C)(C)Cc2cn(CCCCCCCCCCCC(=O)NCCN(CCC(=O)NCCN)CCC(=O)NCCN)nn2)c1 [Example 92]	212	212
COc1ccc(F)c(-c2ccc(COc3cccc([C@@H](CC(=O)O)C4CC4)c3)cc2CC(C)(C)Cn2cc(CCCCCCCCCCCCCCCCCC(=O)NCCC[N+](C)(CC(=O)O)CC(=O)O)nn2)c1 [Example 93]	4.58	–
COc1ccc(F)c(-c2ccc(COc3cccc([C@@H](CC(=O)O)C4CC4)c3)cc2CC(C)(C)Cn2cc(CCCCCCC(=O)NCCN(CCC(=O)NCCN)CCC(=O)NCCN)nn2)c1 [Example 94]	1950	1950
COc1ccc(F)c(-c2ccc(COc3cccc([C@@H](CC(=O)O)C4CC4)c3)cc2CC(C)(C)Cn2cc(CCCCCCC(=O)NCC[N+](C)(CCC(=O)NCCN)CCC(=O)NCCN)nn2)c1 [Example 95]	> 10000	> 10000
COc1ccc(F)c(-c2ccc(COc3cccc([C@@H](CC(=O)O)C4CC4)c3)cc2CC(C)(C)Cc2cn(CCCCCCCCCC(=O)NCC[N+](C)(CCC(=O)NCCN)CCC(=O)NCCN)nn2)c1 [Example 96]	1050	1050
COc1ccc(F)c(-c2ccc(COc3cccc([C@@H](CC(=O)O)C4CC4)c3)cc2CC(C)(C)Cc2cn(CCCCCCCCCCCC(=O)NCC[N+](C)(CCC(=O)NCCN)CCC(=O)NCCN)nn2)c1 [Example 97]	328	328
COc1ccc(C(=O)N(CC(C)(C)CCCCCCn2cc(CCCCCCC(=O)NCCN(CCC(=O)NCCN)CCC(=O)NCCN)nn2)c2cccc(C)n2)c(N2CCC(COc3cc([C@@H](CC(=O)O)C4CC4)ccn3)CC2)c1 [Example 98]	3.54	3.54
COc1ccc(C(=O)N(CC(C)(C)CCCCCCn2cc(CCCCCCC(=O)NCC[N+](C)(CCC(=O)NCCN)CCC(=O)NCCN)nn2)c2cccc(C)n2)c(N2CCC(COc3cc([C@@H](CC(=O)O)C4CC4)ccn3)CC2)c1 [Example 99]	4.58	4.58
COc1ccc(F)c(-c2ccc(COc3cccc([C@@H](CC(=O)O)C4CC4)c3)cc2CC(C)(C)Cc2cn(CCCCCCCCCCCCCCC(=O)NCC[N+](C)(CCC(=O)NCCN)CCC(=O)NCCN)nn2)c1 [Example 102]	4.05	4.05
COc1ccc(F)c(-c2ccc(COc3cccc([C@@H](CC(=O)O)C4CC4)c3)cc2C(C)(C)c2cn(CCCCCCCCCCCCCCCC(=O)NCC[N+](C)(CCC(=O)NCCN)CCC(=O)NCCN)nn2)c1 [Example 103]	21.5	–
COc1ccc(F)c(-c2ccc(COc3cccc([C@@H](CC(=O)O)C4CC4)c3)cc2CC(C)(C)Cn2cc(CCCCCCCCCC(=O)NCCCN(CC(=O)O)CC(=O)O)nn2)c1 [Example 104]	> 10000	–
COc1ccc(F)c(-c2ccc(COc3cccc([C@@H](CC(=O)O)C4CC4)c3)cc2CC(C)(C)Cn2cc(CCCCCCCCCC(=O)NCCC[N+](C)(CC(=O)[O-])CC(=O)O)nn2)c1 (stereo partly shown) [Example 105]	> 10000	–
COc1ccc(F)c(-c2ccc(COc3cccc([C@@H](CC(=O)O)C4CC4)c3)cc2CC(C)(C)Cn2cc(CCCCCCCCCCCCCC(=O)NCCCN(CC(=O)O)CC(=O)O)nn2)c1 [Example 106]	696	–
COc1ccc(F)c(-c2ccc(COc3cccc([C@@H](CC(=O)O)C4CC4)c3)cc2CC(C)(C)Cn2cc(CCCCCCCCCCCCCC(=O)NCCC[N+](C)(CC(=O)O)CC(=O)O)nn2)c1 [Example 107]	1310	–
